Results taken from US20140024687A1, “Combinations of Vascular Disrupting Agents with Inhibitor of Apoptosis Proteins Antagonists” (priority 2009, published 2014).

How the values were obtained:
[1] = test system: MDA-MB-231 human breast cancer orthotopic xenograft; assay: Single agent anti-tumor activity, MDA-MB-231 human breast cancer orthotopic xenograft (Example 1); assay type: in vivo, athymic nude mice; conditions: day 71 post implantation; Compound B 150 mg/kg po qw days 50, 57, 64; Compound A 20 mg/kg iv days 50, 54, 58; p<0.05 compared to vehicle controls
Experimental: Treatment started on day 50 following orthotopic implantation of 7.5×10^6 MDA-MB-231 human breast cancer cells into the mammary fat pad. Starting tumor volume averaged 160 mm^3 (range=76 to 286); n=8/group. […] The vehicle for […] is 10% Tris-HCl buffer and 90% 1×PBS, Statistical analysis performed on delta tumor volumes on day 71 post implantation using a One-way ANOVA followed by a post hoc Tukey test.

[2] = test system: TNF mRNA; conditions: Colon 38 tumor bearing mice (Joseph WR, 1999); cited from earlier work
[3] = test system: HS944.t human melanoma xenograft; conditions: B 100 mg/kg po qw; A 15 mg/kg iv; combination; days 14 and 21
Experimental: Treatment started on day 14 following subcutaneous implantation of 5.0×10^6 Hs944.t human melanoma cancer cells in 50% basement membrane matrix. Starting tumor volume averaged 245 mm^3 (range=146 to 321); n=8/group. In this study, (s)—N—((S)-1-cyclohexyl-2-{(S)-2-[4-(4-fluoro-benzoyl)-thiazol-2-yl]-pyrrolidin-1-yl}-2-oxo-ethyl)-2-methylamino-propionamide was administered orally (po) at 100 mg/kg, qw, 5,6-dimethylxanthenone-4-acetic acid was administered intravenously (iv) at 15 mg/kg, or (S)—N—((S)-1-cyclohexyl-2-{(S)-2-[4-(4-fluoro-benzoyl)-thiazol-2-yl]-pyrrolidin-1-yl}-2-oxo-ethyl)-2-methylamino-propionamide and 5,6-dimethylxanthenone-4-acetic acid were administered in combination on days 14 and 21 post implantation, Vehicle control for (S)—N—((S)-1-cyclohexyl-2-{(S)-2-[4-(4-fluoro-benzoyl)-thiazol-2-yl]-pyrrolidin-1-yl}-2-oxo-ethyl)-2-methylamino-propionamide is 30% 0.1N HCl and 70% 100 mM sodium acetate buffer, pH 4.63, Vehicle control for 5,6-dimethylxanthenone-4-acetic acid is 10% 1× Tris-HCl and 90% 1×PBS, Statistical analysis performed on tumor volumes from day 14-27 post implantation using a repeated measures MANOVA test.

[4] = test system: mouse TNF; assay: Mouse TNF in MDA-MB-231 breast xenograft tissue after treatment; assay type: in vivo; conditions: tumors collected 6 hrs after final dose; n=4, no statistical analysis
Text: (§1) Due to the small sample size (n=4), statistical analysis was not performed.

[5] = test system: human TNF; assay: Human TNF in MDA-MB-231 tumor lysates after treatment; assay type: in vivo; conditions: tumors collected 6 hrs after final dose; n=4, no statistical analysis
Text: as §1

Compound	single agent anti-tumor activity (delta tumor volumes vs vehicle controls) [1]	TNF mRNA in tumor, spleen, and liver [2]	surviving animals at study termination [3]	mouse TNF in xenograft tissue [4]	human TNF in MDA-MB-231 tumor lysates [5]
Cc1ccc2c(=O)c3cccc(CC(=O)O)c3oc2c1C [Compound A, 5,6-dimethylxanthenone-4-acetic acid]	demonstrated single agent anti-tumor activity	increase TNF mRNA	7/8	increase in mouse TNF	–
CN[C@@H](C)C(=O)N[C@H](C(=O)N1CCC[C@H]1c1nc(C(=O)c2ccc(F)cc2)cs1)C1CCCCC1 [Compound B, (S)—N—((S)-1-Cyclohexyl-2-{(S)-2-[4-(4-fluoro-benzoyl)-thiazol-2-yl]-pyrrolidin-1-yl}-2-oxo-ethyl)-2-methylamino-propionamide]	demonstrated single agent anti-tumor activity	–	–	–	increase in human TNF
